Data on 24 molecules can be found in patent publication US10526323B2, “Indazole and azaindazole substituted compounds as mGluR4 allosteric potentiators, compositions, and methods of treating neurological dysfunction” (Vanderbilt University, priority 2015, dated 2020).

Broadly, the EC50 is the concentration needed to bring the measured effect to its halfway point.

In this test the target is mGluR4 (UniProt Q14833). The test can be described thus: mGluR4 potentiation assay: increase in response to an EC20 concentration of agonist (species not given). It counts as cell-based. The following applies: EC50 for potentiation of mGluR4; table does not state human or rat. A digest of the protocol: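 Human mGluR4 was expressed in CHO cells read with a Ca2+-sensitive dye; rat mGluR4 was co-expressed with GIRK in […] read by thallium flux. Potentiation is the rise over agonist-alone response, with EC50 and maximal potentiation from non-linear fits.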
For `COCCn1nc(C)c2cc(Nc3n[nH]c4cccnc34)cnc21` [Example 261, 1-(2-methoxyethyl)-3-methyl-N-(1H-pyrazolo[4,3-b]pyridin-3-yl)pyrazolo[3,4-b]pyridin-5-amine], the EC50 was determined as 2330 nM. `Cc1nn(CC(C)(C)C)c2ncc(Nc3n[nH]c4cccnc34)cc12` [Example 262, 1-(2,2-dimethylpropyl)-3-methyl-N-(1H-pyrazolo[4,3-b]pyridin-3-yl)pyrazolo[3,4-b]pyridin-5-amine]: the EC50 is 160 nM.

Turning to `Cc1nn(C2CC2)c2ncc(Nc3n[nH]c4cccnc34)cc12` [Example 263, 1-cyclopropyl-3-methyl-N-(1H-pyrazolo[4,3-b]pyridin-3-yl)pyrazolo[3,4-b]pyridin-5-amine], the EC50 stood at 410 nM.

With `CCCn1nc(C)c2cc(Nc3n[nH]c4cccnc34)cnc21` [Example 264, 3-methyl-1-propyl-N-(1H-pyrazolo[4,3-b]pyridin-3-yl)pyrazolo[3,4-b]pyridin-5-amine], the EC50 turned out to be 150 nM.

For `Cc1nn(C(C)C)c2ncc(Nc3n[nH]c4ncccc34)cc12` [Example 267, N-(1-isopropyl-3-methyl-1H-pyrazolo[3,4-b]pyridin-5-yl)-1H-pyrazolo[3,4-b]pyridin-3-amine], the concentration giving a half-maximal response (EC50) was more than 10000 nM. To `Cc1nn(C)c2ncc(Nc3n[nH]c4cccnc34)cc12` [Example 268, N-(1,3-dimethyl-1H-pyrazolo[3,4-b]pyridin-5-yl)-1H-pyrazolo[4,3-b]pyridin-3-amine] belongs more than 30000 nM; to `Cc1nn(C(C)C)c2ncc(Nc3n[nH]c4ccccc34)cc12` [Example 269, N-(1H-indazol-3-yl)-1-isopropyl-3-methyl-1H-pyrazolo[3,4-b]pyridin-5-amine], 2550 nM; to `Cc1nn(C(C)C)c2ncc(Nc3n[nH]c4cccnc34)cc12` [Example 270, N-(1-isopropyl-3-methyl-1H-pyrazolo[3,4-b]pyridin-5-yl)-1H-pyrazolo[4,3-b]pyridin-3-amine], more than 30000 nM.

As for `Cc1nn(C)c2ncc(Nc3n[nH]c4ccccc34)cc12` [Example 271, N-(1H-indazol-3-yl)-1,3-dimethyl-1H-pyrazolo[3,4-b]pyridin-5-amine], the EC50 is more than 10000 nM. To `CC(C)Cn1nc(Cl)c2cc(Nc3n[nH]c4cccnc34)ccc21` [Example 274, N-(3-chloro-1-isobutyl-1H-indazol-5-yl)-1H-pyrazolo[4,3-b]pyridin-3-amine] belongs 3020 nM; to `FC(F)(F)Cn1nc(Cl)c2cc(Nc3n[nH]c4cccnc34)ccc21` [Example 275, N-(3-chloro-1-(2,2,2-trifluoroethyl)-1H-indazol-5-yl)-1H-pyrazolo[4,3-b]pyridin-3-amine], 2720 nM. Consider `Clc1nn(C2CCC2)c2ccc(Nc3n[nH]c4cccnc34)cc12` [Example 276, N-(3-chloro-1-cyclobutyl-1H-indazol-5-yl)-1H-pyrazolo[4,3-b]pyridin-3-amine], for which the EC50 was more than 10000 nM. As for `Cc1cc(Cn2nc(Cl)c3cc(Nc4n[nH]c5cccnc45)ccc32)on1` [Example 277, N-(3-chloro-1-((3-methylisoxazol-5-yl)methyl)-1H-indazol-5-yl)-1H-pyrazolo[4,3-b]pyridin-3-amine], the EC50 is 310 nM. To `O=C(O)Cn1nc(Cl)c2cc(Nc3n[nH]c4cccnc34)ccc21` [Example 278, 2-(5-((1H-pyrazolo[4,3-b]pyridin-3-yl)amino)-3-chloro-1H-indazol-1-yl)acetic acid] belongs 1560 nM. Take `Cc1cc(Cn2nc(Cl)c3cc(Nc4n[nH]c5cccnc45)ccc32)no1` [Example 279, N-(3-chloro-1-((5-methylisoxazol-3-yl)methyl)-1H-indazol-5-yl)-1H-pyrazolo[4,3-b]pyridin-3-amine]: the EC50 was found to be 290 nM. To `CC(C)n1nc(Cl)c2cc(Nc3n[nH]c4cccnc34)ccc21` [Example 280, N-(3-chloro-1-isopropyl-1H-indazol-5-yl)-1H-pyrazolo[4,3-b]pyridin-3-amine] belongs more than 10000 nM; to `CCCCn1nc(Cl)c2cc(Nc3n[nH]c4cccnc34)ccc21` [Example 281, N-(1-butyl-3-chloro-1H-indazol-5-yl)-1H-pyrazolo[4,3-b]pyridin-3-amine], 2430 nM; to `[2H]C([2H])([2H])n1nc(Cl)c2cc(Nc3n[nH]c4cccnc34)ccc21` [Example 282, N-(3-chloro-1-(methyl-d3)-1H-indazol-5-yl)-1H-pyrazolo[4,3-b]pyridin-3-amine], more than 10000 nM. To `Cc1nn(CCCCN2CCCCC2)c2ccc(Nc3n[nH]c4cccnc34)cc12` [Example 283, N-(3-methyl-1-(4-(piperidin-1-yl)butyl)-1H-indazol-5-yl)-1H-pyrazolo[4,3-b]pyridin-3-amine] belongs 3510 nM; to `Clc1nn(CC2CC2)c2ccc(Nc3n[nH]c4cccnc34)cc12` [Example 284, N-(3-chloro-1-(cyclopropylmethyl)-1H-indazol-5-yl)-1H-pyrazolo[4,3-b]pyridin-3-amine], more than 10000 nM; to `Clc1nn(CC2CCC2)c2ccc(Nc3n[nH]c4cccnc34)cc12` [Example 285, N-(3-chloro-1-(cyclobutylmethyl)-1H-indazol-5-yl)-1H-pyrazolo[4,3-b]pyridin-3-amine], 1980 nM. To `CCC(C)n1nc(Cl)c2cc(Nc3n[nH]c4cccnc34)ccc21` (stereo not drawn) [Example 286, N-(1-(sec-butyl)-3-chloro-1H-indazol-5-yl)-1H-pyrazolo[4,3-b]pyridin-3-amine] belongs more than 10000 nM; to `FC1(F)CC(Cn2nc(Cl)c3cc(Nc4n[nH]c5cccnc45)ccc32)C1` [Example 287, N-(3-chloro-1-((3,3-difluorocyclobutyl)methyl)-1H-indazol-5-yl)-1H-pyrazolo[4,3-b]pyridin-3-amine], 2990 nM; to `Cc1nn(CC2CC(F)(F)C2)c2ccc(Nc3n[nH]c4cccnc34)cc12` [Example 288, N-(1-((3,3-difluorocyclobutyl)methyl)-3-methyl-1H-indazol-5-yl)-1H-pyrazolo[4,3-b]pyridin-3-amine], 680 nM.
